Assay results reported in US7012078B2, “2-aminopyridines containing fused ring substituents” (Pfizer Inc., priority 1997, dated 2006).
Counter-ions that a name gives are not always drawn.

With `Nc1cccc(-c2ccc(OC3CN(Cc4ccccn4)C3)c3ccccc23)n1` (as salt: hydrochloride) [Example 74, 6-[4-(1-Pyridin-2-ylmethyl-azetidin-3-yloxy)-naphthalen-1-yl]-pyridin-2-ylamine] the melting point was 97 to 120 °C.
`Nc1cccc(-c2ccc(OCCNCc3ccc4c(c3)OCO4)c3ccccc23)n1` (as salt: hydrochloride) [Example 14, 6-(4-{2-[(Benzo[1,3]dioxol-5-ylmethyl)-amino]-ethoxy}-naphthalen-1-yl)-pyridin-2-ylamine] gave a melting point of 60 to 80 °C.
Molecule `Nc1cccc(-c2ccc(OC3CCN(Cc4ccco4)C3)c3ccccc23)n1` (stereo not shown) (as salt: hydrochloride) [Example 32, 6-[4-(1-Furan-2-ylmethyl-pyrrolidin-3-yloxy)-naphthalen-1-yl]-pyridin-2-ylamine] has a melting point of 140 to 160 °C.
Molecule `CN1CC(Oc2ccc(-c3cccc(N)n3)c3ccccc23)C1` (as salt: hydrochloride) [Example 75, 6-[4-(N-methyl-azetidin-3-yloxy)-naphthalen-1-yl]-pyridin-2-ylamine] has a melting point of 240 to 255 °C.
Work on `Nc1cccc(-c2ccc(OC3CCCCC3N)c3ccccc23)n1` (stereo not shown) (as salt: hydrochloride) [Example 63, 6-[4-(2-Amino-cyclohexyloxy)-naphthalen-1-yl]-pyridin-2-ylamine] yielded a melting point of 218 to 230 °C.
With `Nc1cccc(-c2ccc(CCN3CCN(CCc4ccccc4)CC3)c3ccccc23)n1` (as salt: hydrochloride) [Example 1, 6-{4-[2-(4-Phenethyl-piperazin-1-yl)-ethyl]-naphthalen-1-yl)-pyridin-2-ylamine] the melting point was 80 to 105 °C.
In the case of `Nc1cccc(-c2ccc(CCNCc3ccc(Cl)c(Cl)c3)c3ccccc23)n1` (as salt: hydrochloride) [Example 11, 6-{4-[2-(3,4-Dichloro-benzylamino)-ethyl]-naphthalen-1-yl}-pyridin-2-ylamine], the melting point is reported as 145 to 170 °C.
`CC(C)N(CCOc1ccc(-c2cccc(N)n2)c2c1CCCC2)C(C)C` (as salt: hydrochloride) [Example 40, 6-[4-(2-Diisopropylamino-ethoxy)-5,6,7,8-tetrahydro-naphthalen-1-yl]-pyridin-2-ylamine] gave a melting point of 50 to 60 °C.
`Nc1cccc(-c2ccc(OC3CN4CCC3CC4)c3ccccc23)n1` (stereo not shown) (as salt: hydrochloride) showed a melting point of 220 to 228 °C.
Work on `CC(C)CN1CC(Oc2ccc(-c3cccc(N)n3)c3ccccc23)C1` (as salt: hydrochloride) [Example 65, 6-[4-(1-Isobutyl-azetidin-3-yloxy)-naphthalen-1-yl]-pyridin-2-ylamine] yielded a melting point of 133 to 148 °C.
Molecule `CC(C)N1CC(Oc2ccc(-c3cccc(N)n3)c3ccccc23)C1` (as salt: hydrochloride) [Example 76, 6-[4-(N-Isopropyl-azetidin-3-yloxy)-naphthalen-1-yl]-pyridin-2-ylamine] has a melting point of 120 to 135 °C.
Molecule `Nc1cccc(-c2ccc(OC3CCNC3)c3ccccc23)n1` (stereo not shown) (as salt: hydrochloride) [Example 28, 6-[4-(Pyrrolidin-3-yloxy)-naphthalen-1-yl]-pyridin-2-ylamine] has a melting point of 60 to 70 °C.
In the case of `CN(C)CCCOc1ccc(-c2cccc(N)n2)c2ccccc12` (as salt: hydrochloride) [Example 35, 6-[4-(3-Dimethylamino-propoxy)-naphthalen-1-yl]-pyridin-2-ylamine], the melting point is reported as 105 to 120 °C.
`Nc1cccc(-c2ccc(OC3CN(Cc4ccco4)C3)c3ccccc23)n1` (as salt: hydrochloride) [Example 67, 6-[4-(1-Furan-2-ylmethyl-azetidin-3-yloxy)-naphthalen-1-yl]-pyridin-2-ylamine] gave a melting point of 75 to 90 °C.
With `CC(C)CN1CCC(Oc2ccc(-c3cccc(N)n3)c3ccccc23)C1` (stereo not shown) (as salt: hydrochloride) [Example 31, 6-[4-(1-Isobutyl-pyrrolidin-3-yloxy)-naphthalen-1-yl]-pyridin-2-ylamine] the melting point was 78 to 85 °C.
With `Nc1cccc(-c2ccc(OCCN3CCN(CCc4ccccc4)CC3)c3ccccc23)n1` (as salt: hydrochloride) [Example 17, 6-{4-[2-(4-Phenethyl-piperazin-1-yl)-ethoxy]-naphthalen-1-yl}-pyridin-2-ylamine] the melting point was 45 to 80 °C.
